Assays:
ShD14 [1] = system: ShD14; parameters: method as in PMID 26293962; conditions: cited from earlier work
ShD14 [2] = assay: YLG hydrolysis assay, ShD14; format: biochemical, Striga hermonthica; conditions: fluorescence, repeated YLG hydrolysis assays
Description: The YLG assays were conducted as previously described[28] with minor modifications. […] The fluorescence intensity was measured using a SpectraMax® iD5 Multi-Mode Microplate Reader (Molecular Devices). Measurements were performed at room temperature under a 480 nm excitation wavelength, a 530 nm emission wavelength, a manual PMT of 500, and a read height of 1.00 mm. The fluorescence can be detected if YLG is hydrolyzed. […] The experiment was repeated 6 times independently. page 4: Supplementary Figure 4. YLG hydrolysis assays of OsD14 and ShD14. RFU (relative fluorescence units) was calculated by dividing the fluorescence of OsD14. The fluorescence can be detected under a 490 nm excitation wavelength and a 520 nm emission wavelength if YLG is hydrolyzed. The experiments were repeated 4 (OsD14) or 6 times independently. Columns represent the mean RFU, and the error bars represent the standard deviation (S.D.). Each replicate is indicated by a black circle.

ShHTL7 L124F/T190F/C194F = ShHTL7 L124F/T190F/C194F (Striga hermonthica, UniProt A0A0M3PNA2, C194F/L124F/T190F); assay: YLG competition assay, ShHTL7 triple mutation; format: biochemical
Chain of ShHTL7 L124F/T190F/C194F (A0A0M3PNA2 whole entry L124F/T190F/C194F): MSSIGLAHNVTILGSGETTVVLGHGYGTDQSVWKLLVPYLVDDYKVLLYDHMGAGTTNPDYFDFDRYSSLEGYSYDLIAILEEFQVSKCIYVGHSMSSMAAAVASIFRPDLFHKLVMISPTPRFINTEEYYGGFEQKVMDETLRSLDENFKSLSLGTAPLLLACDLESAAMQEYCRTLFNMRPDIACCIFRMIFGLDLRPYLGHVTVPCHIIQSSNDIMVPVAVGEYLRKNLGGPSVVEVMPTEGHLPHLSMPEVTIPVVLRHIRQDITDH
Description: (§1) The YLG assays were conducted as previously described[28] with minor modifications. Ten microliters of 0.1 mg mL^−1 ShHTL7 protein in a reaction buffer containing 20 mM HEPES, pH 7.0, 150 mM NaCl and 80 μL of reaction buffer were mixed in a 96-well black plate (Grenier). Ten microliters of 10 μM YLG was added to the solution and incubated at 25 °C for 1 h prior to measurement. The fluorescence intensity was measured using a SpectraMax® iD5 Multi-Mode Microplate Reader (Molecular Devices). Measurements were performed at room temperature under a 480 nm excitation wavelength, a 530 nm emission wavelength, a manual PMT of 500, and a read height of 1.00 mm. The fluorescence can be detected if YLG is hydrolyzed. The RFU (relative fluorescence unit) was calculated by subtracting the fluorescence of the buffer (without protein) and then dividing by the fluorescence of wild-type ShHTL7. […]
(§2) in a previous study6, the enzymes were incubated with YLG at the indicated concentrations. The RFU (relative fluorescence units) was calculated by dividing the fluorescence of hydrolysis at 10 μM YLG by wild type (WT) ShHTL7 after subtracting the fluorescence of the buffer. The Km values were calculated from a Michaelis-Menten plot using GraphPad Prism software and are shown in the plots. […]
(§3) The inhibition constant Ki was calculated according to the Cheng-Prusoff equation7. […]

ShHTL4 = assay: SL hydrolysis assay (HPLC), ShHTL4; format: biochemical, Striga hermonthica; conditions: 3.2 μM SL, 1.6 μM enzyme, 30 min, 30 °C
Description: (§4) Next, 50 μL of 1 M HCl was added to each reaction solution, and the reaction solutions were extracted 3 times with 300 μL of ethyl acetate. The ethyl acetate layers were combined and dried in vacuo and were then dissolved in 50 μL of methanol. For each layer, 5 μL was applied to the reverse-phase HPLC (Shimadzu LC-2030C). The analytical column was a CAPCELL CORE C18 (Φ 2.1 × 100 mm, Shiseido). The analytes were eluted under gradient conditions at a flow rate of 0.20 mL min^−1 with a linear ramp of methanol to 90% methanol at 19 min, which was maintained for 6 min before resetting to the original conditions. […] The percentage of hydrolyzed SL was calculated and used for statistical analyses. One-tailed unpaired Student’s t-tests were used for comparison between buffer samples and enzyme samples.

ShHTL1 [3] = molecular target: T1, ShHTL1 (Striga hermonthica, UniProt A0A0M4AV81); assay: SL hydrolysis assay (HPLC), ShHTL1; format: biochemical; conditions: 3.2 μM SL, 1.6 μM enzyme, 30 min, 30 °C
T1 sequence (A0A0M4AV81 entry or part of it): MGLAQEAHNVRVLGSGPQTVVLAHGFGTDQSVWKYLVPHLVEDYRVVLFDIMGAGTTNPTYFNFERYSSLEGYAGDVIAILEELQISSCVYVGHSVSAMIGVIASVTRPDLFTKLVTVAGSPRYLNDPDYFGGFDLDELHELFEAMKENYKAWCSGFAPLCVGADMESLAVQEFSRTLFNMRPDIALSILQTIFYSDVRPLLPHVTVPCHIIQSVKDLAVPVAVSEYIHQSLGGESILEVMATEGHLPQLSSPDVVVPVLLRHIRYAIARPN
Description: as §4

ShHTL7 [4] = molecular target: T2, ShHTL7 (Striga hermonthica, UniProt A0A0M3PNA2); assay: YLG competition assay, WT ShHTL7; format: biochemical
T2 sequence (A0A0M3PNA2 1-271): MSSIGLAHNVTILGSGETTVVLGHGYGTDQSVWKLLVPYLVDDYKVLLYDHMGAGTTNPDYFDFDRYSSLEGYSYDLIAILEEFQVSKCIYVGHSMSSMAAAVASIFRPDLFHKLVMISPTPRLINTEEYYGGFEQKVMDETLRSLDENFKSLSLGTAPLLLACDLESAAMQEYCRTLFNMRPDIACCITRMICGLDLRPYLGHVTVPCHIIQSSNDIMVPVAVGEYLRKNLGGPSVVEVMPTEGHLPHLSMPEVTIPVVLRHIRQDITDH
Description: as §1, §2, §3

ShD14 [5] = assay: SL hydrolysis assay (HPLC), ShD14; format: biochemical, Striga hermonthica; conditions: 3.2 μM SL, 1.6 μM enzyme, 30 min, 30 °C
Description: as §4

[6] = system: ShHTL7–ShMAX2 interaction; assay: Y2H assay ShHTL7-ShMAX2; format: cell-based, Striga hermonthica; conditions: 5 μM ligand
Excerpt: (§5) Full-length sequences of ShD14, ShHTL1, ShHTL3, ShHTL4, ShHTL7, and AtHTL were cloned into the pGBKT7 vector as bait (Clontech), and the coding regions of ShMAX2 and AtMAX2 were cloned into the pGADT7 vector as prey (Clontech). MAX2 was supposed to be unstable without ASK1. Therefore, AtASK1 was cloned into the N terminus of ShMAX2 and AtMAX2 with a 16-residue linker for co-expression. The bait and prey plasmids were co-transformed into the yeast (Saccharomyces cerevisiae) strain Y2HGold (Clontech) by the lithium acetate-mediated method. The presence of both plasmids was confirmed by growth on SD/-Leu/-Trp (-LT) plates. […] The plates were incubated for 5 days at 30 °C.

ShMAX2 and ShHTL4 = assay: In vitro pull-down ShHTL4-ShMAX2; format: binding, Striga hermonthica; conditions: 50 μM ligand, CBB staining
Description: (§6) Ni-NTA pull-down assays were performed with purified ShMAX2 or AtMAX2 as the bait and […]14, or GST-AtD14 as the prey. The molecular weight of the HTL/D14 proteins is nearly the same as that of ASK1; therefore, the HTL/D14 proteins were fused to GST, increasing their molecular weight for detection on SDS-PAGE gels. […] The protein complexes were then eluted with 100 μL of elution buffer containing 50 mM Bis-Tris, pH 6.8, 500 mM NaCl, and 500 mM imidazole and subjected to SDS-PAGE analysis.

ShHTL3 [7] = assay: SL hydrolysis assay (HPLC), ShHTL3; format: biochemical, Striga hermonthica; conditions: 3.2 μM SL, 1.6 μM enzyme, 30 min, 30 °C
Description: as §4

ShHTL7 T190F/C194F [8] = molecular target: ShHTL7 T190F/C194F (Striga hermonthica, UniProt A0A0M3PNA2, C194F/T190F); assay: YLG competition assay, ShHTL7 double mutation; format: biochemical
Chain of ShHTL7 T190F/C194F (Striga hermonthica, UniProt A0A0M3PNA2, C194F/T190F) (A0A0M3PNA2 whole entry T190F/C194F): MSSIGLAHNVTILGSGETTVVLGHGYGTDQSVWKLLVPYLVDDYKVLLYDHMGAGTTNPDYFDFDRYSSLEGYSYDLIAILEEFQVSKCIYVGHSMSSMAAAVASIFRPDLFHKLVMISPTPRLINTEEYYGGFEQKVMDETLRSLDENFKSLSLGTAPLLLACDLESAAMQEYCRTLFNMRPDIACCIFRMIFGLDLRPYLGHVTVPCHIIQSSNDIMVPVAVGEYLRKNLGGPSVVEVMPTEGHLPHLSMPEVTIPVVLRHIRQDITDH
Description: as §1, with “ShHTL7. The experiment was repeated 6 times independently.” for “ShHTL7.”
as §2, with “plots. (d) Competition assays with synthetic SL rac-GR24. WT and ShHTL7 protein” for “plots.”
(§7) The inhibition constant Ki was calculated according to the Cheng-Prusoff equation7. Kirac-GR24 values were 0.07 ± 0.01 μM for WT; 0.15 ± 0.04 μM for the T190F/C194F double mutation; and 11.85 ± 3.43 μM for the L124F/T190F/C194F triple mutation as shown in the plots. The experiment was repeated 4 times independently, and each replicate is represented by a black dot.
(§8) The mean values are fitted, and the error bars represent the standard deviation (S.D.) of three replicates (means ± S.D., n=3).

ShHTL7 T190F/C194F [9] = assay: YLG competition assay, ShHTL7 double mutation; format: biochemical, Striga hermonthica; conditions: from Ki in YLG competition assays
Description: as §1, with “ShHTL7. The experiment was repeated 6 times independently.” for “ShHTL7.”
as §2, with “plots. (d) Competition assays with synthetic SL rac-GR24. WT and ShHTL7 protein” for “plots.”
as §7, §8

ShHTL3 [10] = system: ShHTL3; parameters: method as in PMID 27507097; conditions: cited from earlier work
ShD14–ShMAX2 interaction = assay: Y2H assay ShD14-ShMAX2; format: cell-based, Striga hermonthica; conditions: 5 μM ligand
Excerpt: as §5

ShHTL1 [11] = molecular target: T1, ShHTL1; assay: ITC binding to ShHTL1; conditions: 750 μM ShHTL1 into 100 μM rac-GR24, 20 °C
Description: The binding assays were performed using a MicroCal iTC200 isothermal titration calorimeter (GE Healthcare). Prior to the ITC experiments, concentrated ShD14, ShHTL1, ShHTL4, and ShHTL7 were exchanged into a buffer consisting of 20 mM HEPES (pH 8.0) and 150 mM NaCl to remove dithiothreitol and were then adjusted to a final concentration of 150 μM. The sample cell was filled with protein solution (204 μL). Nineteen consecutive 2.0-μL aliquots of 3 mM KAR1 (3-methyl-2H-furo [2,3-c] pyran-2-one) were injected into a prepared protein solution at 150 s intervals at 20 °C. The first injection volume was 0.4 μL, and the observed thermal peak was excluded from the data analysis. A negative control was obtained by titrating 3 mM KAR1 into the buffer (20 mM HEPES, pH 8.0, 150 mM NaCl) in the same manner. Data fitting was performed in “one set of sites” mode, and KD values were calculated using Origin software provided by MicroCal.
Binding analyses of ShHTLs and ShD14 with KAR1. The ITC assays were performed by adding 3 mM KAR1 to 150 μM ShHTL1 (a), ShHTL4 (b), ShHTL7
(c), ShD14 (d) and AtHTL (e).
ShHTL1 and AtHTL were fitted using the MicroCal origin software with the “one binding site” model.

AtHTL = molecular target: T3, AtHTL (Arabidopsis thaliana, UniProt Q9SZU7); conditions: cited from earlier work
T3 sequence (Q9SZU7 1-270): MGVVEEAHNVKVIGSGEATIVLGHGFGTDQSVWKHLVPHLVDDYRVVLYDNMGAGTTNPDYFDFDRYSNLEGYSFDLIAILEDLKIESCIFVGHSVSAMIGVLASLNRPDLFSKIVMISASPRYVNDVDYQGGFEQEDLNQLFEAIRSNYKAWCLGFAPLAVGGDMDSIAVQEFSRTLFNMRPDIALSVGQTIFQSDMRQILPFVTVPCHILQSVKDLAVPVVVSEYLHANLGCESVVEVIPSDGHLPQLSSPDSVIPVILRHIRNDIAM

ShMAX2 and ShD14 = assay: In vitro pull-down ShD14-ShMAX2; format: binding, Striga hermonthica; conditions: 50 μM ligand, CBB staining
Description: as §6

ShHTL7 [12] = molecular target: T2, ShHTL7; assay: SL hydrolysis assay (HPLC), ShHTL7; format: biochemical; conditions: 3.2 μM SL, 1.6 μM enzyme, 30 min, 30 °C
Description: as §4

AtD14 = molecular target: AtD14; parameters: method as in earlier work; conditions: read-out: Kd of rac-GR24 binding to AtD14; quoted in reviewer comment; cited from earlier work
[13] = molecular target: PYR1 in complex with co-receptor TYPE 2C PROTEIN PHOSPHATASE (PP2C); parameters: method as in PMID 21847091; conditions: cited from earlier work
[…] 1 (PYR1) = molecular target: […] 1 (PYR1); parameters: method as in PMID 21847091; conditions: read-out: KD of PYR1 for ABA; cited from earlier work

SMILES: CCOC(=O)c1ccccc1-c1c2ccc(=O)cc-2oc2cc(OC3C=C(C)C(=O)O3)ccc12 (stereo not drawn) [YLG, Yoshimulactone Green]
- hydrolytic activity of ShD14 toward YLG, previous study (ShD14 [1]): no hydrolytic activity toward YLG
- hydrolysis of YLG by ShD14 (ShD14 [2]): not YLG

SMILES: CC1=CC(O/C=C2/C(=O)OC3c4ccccc4CC23)OC1=O (racemic) [rac-GR24]
- IC50 (ShHTL7 L124F/T190F/C194F): 13900 ± 3410 nM
- Ki (ShHTL7 L124F/T190F/C194F): 11800 ± 3430 nM
- hydrolytic activity of ShHTL4 toward SL (ShHTL4): able to hydrolyze
- hydrolytic activity of ShHTL1 toward SL (ShHTL1 [3]): no hydrolytic activity
- IC50 (ShHTL7 [4]): 170 ± 10 nM
- Ki (ShHTL7 [4]): 70 ± 10 nM
- hydrolytic activity of ShD14 toward SL (ShD14 [5]): able to hydrolyze
- ligand-induced ShHTL7-ShMAX2 interaction [6]: triggered the interaction of ShHTL7 with ShMAX2
- ligand-dependent ShMAX2-ShHTL4 interaction (ShMAX2 and ShHTL4): able to interact with ShHTL4 of the divergent clade in the presence of rac-GR24
- hydrolytic activity of ShHTL3 toward SL (ShHTL3 [7]): no hydrolytic activity
- IC50 (ShHTL7 T190F/C194F [8]): 210 ± 50 nM
- Ki (ShHTL7 T190F/C194F [8]): 150 ± 40 nM
- decrease in rac-GR24 binding affinity, T190F/C194F vs ShHTL7 (ShHTL7 T190F/C194F [9]): twofold decrease
- binding of rac-GR24 to ShHTL3 (ShHTL3 [10]): can bind to KAR1 but not rac-GR24
- ligand-induced ShD14-ShMAX2 interaction (ShD14–ShMAX2 interaction): rac-GR24-dependent ShD14–ShMAX2 interaction was also observed
- binding of rac-GR24 to ShHTL1 (ShHTL1 [11]): no detectable binding
- hydrolysis of rac-GR24 by AtHTL (AtHTL): able to hydrolyze rac-GR24 to some extent
- ligand-dependent ShMAX2-ShD14 interaction (ShMAX2 and ShD14): direct interaction was detected between ShMAX2 and ShD14 in a rac-GR24-dependent manner
- hydrolytic activity of ShHTL7 toward SL (ShHTL7 [12]): able to hydrolyze
- Kd (AtD14): 300 nM

SMILES: CCOC(=O)c1ccccc1-c1c2ccc(=O)cc-2oc2cc(OC3C=CC(=O)O3)ccc12 (stereo not drawn) [dYLG, desmethyl-YLG]
- hydrolysis of dYLG by AtHTL (AtHTL): hydrolyze the synthesized desmethyl-YLG (dYLG)

SMILES: CC1=CC(OC=C2C(=O)OC3C4=C(CCCC4(C)C)CC23)OC1=O (stereo not drawn) [5DS, 5-deoxystrigol]
- hydrolytic activity of ShHTL4 toward SL (ShHTL4): able to hydrolyze
- hydrolytic activity of ShHTL1 toward SL (ShHTL1 [3]): weak 5DS hydrolytic activity
- hydrolytic activity of ShD14 toward SL (ShD14 [5]): able to hydrolyze
- hydrolytic activity of ShHTL7 toward SL (ShHTL7 [12]): able to hydrolyze

SMILES: CC1=C[C@H](O/C=C2/C(=O)O[C@@H]3c4ccccc4C[C@H]23)OC1=O [GR24^ent−5DS]
- hydrolysis of GR24^ent−5DS by AtHTL (AtHTL): able to hydrolyze GR24^ent−5DS

SMILES: CC1=CC(=O)CC(C)(C)[C@@]1(O)/C=C/C(C)=C\C(=O)O [ABA, abscisic acid]
- binding affinities for ABA, PYR1-PP2C complex [13]: nanomolar range
- Kd ([…] 1 (PYR1)): 97000 nM
